# Results published in US9718790B2, “Triazine derivative and pharmaceutical composition having an analgesic activity comprising the same” (SHIONOGI & CO., LTD., priority 2010, dated 2017).
# pIC50: −log10 of the molar value. Where “and” joins values, the source holds several entries; their conditions need not be identical. Identical values can stand only once.
# Target: human P2X3 receptor (Homo sapiens (Human), UniProt P56373)
# Assay: Evaluation of human P2X3 receptor inhibitory activity (Fluo-3 calcium fluorescence, FDSS 3000, ATP stimulation);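 note: stimulus was 50 nM ATP with fluorescence followed for 3 min, and the response per well was peak post-ATP fluorescence divided by the reading at measurement start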
# Type: cell-based
# Settings: C6BU-1 cells stably expressing human P2X3 receptor
# Sequence of human P2X3 receptor (P56373 whole entry): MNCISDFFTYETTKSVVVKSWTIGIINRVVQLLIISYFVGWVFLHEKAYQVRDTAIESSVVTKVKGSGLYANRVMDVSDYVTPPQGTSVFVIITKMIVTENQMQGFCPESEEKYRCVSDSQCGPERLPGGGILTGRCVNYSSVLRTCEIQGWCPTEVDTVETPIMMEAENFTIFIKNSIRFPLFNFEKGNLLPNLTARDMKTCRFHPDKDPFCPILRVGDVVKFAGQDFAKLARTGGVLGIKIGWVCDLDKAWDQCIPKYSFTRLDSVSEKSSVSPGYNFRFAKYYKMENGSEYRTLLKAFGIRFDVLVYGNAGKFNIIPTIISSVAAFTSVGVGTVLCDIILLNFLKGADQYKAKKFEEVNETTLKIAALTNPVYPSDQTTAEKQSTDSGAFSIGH
row,Compound,pIC50
1,COc1cc(/N=c2\[nH]c(=O)n(C[C@H](C)C(=O)O)c(=O)n2Cc2ccc(Cl)cc2)ccc1CC(C)C [Compound I-1270],7.92
2,Cc1ccc(Cn2c(=O)n(C[C@H](C)C(=O)O)c(=O)[nH]/c2=N\c2ccc(NC(=O)C(C)C)c(Cl)c2)cc1 [Compound I-1420],6.22
3,COC(=O)[C@@H](C)Cn1c(=O)[nH]/c(=N\c2ccc(Oc3ccnc(O)c3)cc2)n(Cc2ccc(C)cc2)c1=O [Compound I-1432],8.70
4,CCOC(=O)CCn1c(=O)[nH]/c(=N\c2ccc(Oc3cccc(F)c3)cc2)n(Cc2ccc(Cl)cc2)c1=O [Compound I-1937],7.66
5,Cc1ccc(Cn2c(=O)[nH]c(=O)[nH]/c2=N\c2ccc(Oc3cncc(C(=O)O)c3)cc2)cc1 [Compound I-2102],7.47
6,CC(C)COc1ccc(/N=c2\[nH]c(=O)n(C[C@H](C)C(=O)O)c(=O)n2Cc2ccc(Cl)cc2)cc1 [Compound I-0750],7.66
7,CCn1c(=O)[nH]/c(=N\c2ccc(Oc3cc(F)cc(C(=O)O)c3)cc2)n(Cc2ccc(Cl)cc2)c1=O [Compound I-2223],8.22
8,COCc1cc(/N=c2\[nH]c(=O)n(CCC(=O)O)c(=O)n2Cc2ccc(C)cc2)ccc1OC(C)C [Compound I-1428],6.03
9,COC(=O)[C@H](C)[C@H](C)n1c(=O)[nH]/c(=N\c2ccc(CC(C)C)c(OC)c2)n(Cc2ccc(Cl)cc2)c1=O [Compound I-1363],7.25
10,CCn1c(=O)[nH]/c(=N\c2ccc(Oc3ncc(C(=O)O)o3)cc2)n(Cc2ccc(Cl)cc2)c1=O [Compound I-2189],7.33 and 7.29
11,CC(C)Oc1ccc(/N=c2\[nH]c(OCC(=O)NCCO)nc(=O)n2Cc2ccc(Cl)cc2)cc1F [Compound I-0582],6.44
12,CCOC(=O)CCn1c(=O)[nH]/c(=N\c2ccc3[nH]c(C)c(C)c3c2)n(Cc2ccc(Cl)cc2)c1=O [Compound I-1931],8.05
13,O=C(O)CCn1c(=O)[nH]/c(=N\c2ccc(Oc3cccc(F)c3)cc2)n(Cc2ccc(Cl)cc2)c1=O [Compound I-1951],7.60
14,CCOC(=O)COc1ccc(/N=c2\[nH]c(=O)n(CC)c(=O)n2Cc2ccc(Cl)cc2)cc1 [Compound I-1989],6.21
15,Cc1cc(Oc2ccc(/N=c3\[nH]c(=O)n(C[C@H](O)CO)c(=O)n3Cc3ccc(Cl)cc3)cc2)ccn1 [Compound I-1987],8.15
16,CC(C)Oc1ccc(/N=c2\[nH]c(=O)n(Cc3nnn[nH]3)c(=O)n2Cc2ccc(Cl)cc2)cc1F [Compound I-1297],7.59
17,Cc1ccc(Cn2c(=O)n(CCC(=O)O)c(=O)[nH]/c2=N\c2ccc(OC3CCC3)cc2)cc1 [Compound I-1285],7.29
18,Cc1cc(/N=c2\[nH]c(=O)n(C[C@H](C)CC(=O)O)c(=O)n2Cc2ccc(Cl)cc2)ccc1OC(C)C [Compound I-0765],7.40
19,Cc1ccc(Cn2c(=O)n([C@@H](C)[C@@H](C)C(=O)O)c(=O)[nH]/c2=N\c2ccc(OC3CCC3)cc2)cc1 [Compound I-1392],7.74
20,COC(=O)[C@@H](C)[C@@H](C)n1c(=O)[nH]/c(=N\c2ccc(OC3CCC3)cc2)n(Cc2ccc(Cl)cc2)c1=O [Compound I-1452],7.85
21,COc1cc(/N=c2\[nH]c(=O)n(C[C@H]3COC(C)(C)O3)c(=O)n2Cc2ccc(Cl)cc2)ccc1OC(C)C [Compound I-2001],8.30
22,COC(=O)[C@@H](C)Cn1c(=O)[nH]/c(=N\c2ccc(OC(C)C)cc2)n(Cc2ccc(C)cc2)c1=O [Compound I-0606],7.68
23,COC(=O)c1ccc(Oc2ccc(/N=c3\[nH]c(=O)n(C)c(=O)n3Cc3ccc(C)cc3)cc2)cc1 [Compound I-2030],8.22
24,Cc1nc2ccc(/N=c3\[nH]c(=O)n(CCNCCO)c(=O)n3Cc3ccc(Cl)cc3)cc2s1 [Compound I-2163],7.27
25,CCOC(=O)CCCn1c(=O)[nH]/c(=N\c2ccc3oc(C)cc3c2)n(Cc2ccc(C)cc2)c1=O [Compound I-0574],7.82

# Same assay, conditions: C6BU-1 cells stably expressing human P2X3 receptor, Fluo-3 fluorescence, FDSS 3000
row,Compound,pIC50
1,CCc1cc2cc(/N=c3\[nH]c(=O)n(C[C@H](C)C(=O)O)c(=O)n3Cc3ccc(Cl)cc3)ccc2o1 [Compound I-1766],7.74
2,CCc1nc2ccc(/N=c3\[nH]c(=O)n(CCCC(=O)O)c(=O)n3Cc3ccc(Cl)cc3)cc2s1 [Compound I-1705],7.85
3,C[C@@H](C(=O)O)[C@H](C)n1c(=O)[nH]/c(=N\c2ccc3c(c2)OC(F)(F)C(F)(F)O3)n(Cc2ccc(Cl)cc2)c1=O [Compound I-1783],6.77
4,CNC(=O)CCn1c(=O)[nH]/c(=N\c2ccc(Oc3ccc(O)nc3)cc2)n(Cc2ccc(Cl)cc2)c1=O [Compound I-1600],7.96
5,CCCc1nc2ccc(/N=c3\[nH]c(=O)n([C@@H](C)[C@@H](C)C(=O)O)c(=O)n3Cc3ccc(Cl)cc3)cc2s1 [Compound I-1792],7.70
6,CCc1cc2cc(/N=c3\[nH]c(=O)n(C[C@H](C)C(=O)OC)c(=O)n3Cc3ccc(Cl)cc3)ccc2o1 [Compound I-1765],8.05
7,CCc1oc2ccc(/N=c3\[nH]c(=O)n(CC(=O)NC)c(=O)n3Cc3ccc(Cl)cc3)cc2c1C [Compound I-1657],8.05
8,COc1ccc(Oc2ccc(/N=c3\[nH]c(=O)n(CC(=O)O)c(=O)n3Cc3ccc(Cl)cc3)cc2)cn1 [Compound I-1799],6.42
9,Cc1cc(Oc2ccc(/N=c3\[nH]c(=O)n(CCCO)c(=O)n3Cc3ccc(Cl)cc3)cc2)no1 [Compound I-1835],8.10
10,C[C@@H](Cn1c(=O)[nH]/c(=N\c2ccc(O[C@H](C)C(F)(F)F)cc2)n(Cc2ccc(Cl)cc2)c1=O)C(=O)O [Compound I-0932],7.68
11,Cc1ccc(Cn2c(=O)n([C@@H](C)[C@@H](C)C(=O)O)c(=O)[nH]/c2=N\c2ccc(OCC3CC3)c(Cl)c2)cc1 [Compound I-0975],7.37
12,CC[C@H](C)COc1ccc(/N=c2\[nH]c(=O)n(C[C@H](C)C(=O)O)c(=O)n2Cc2ccc(C)cc2)cc1 [Compound I-1059],6.91
13,Cc1cc(Oc2ccc(/N=c3\[nH]c(=O)n(CCO)c(=O)n3Cc3ccc(Cl)cc3)cc2)no1 [Compound I-1756],7.52
14,CC[C@H](C)Oc1ccc(/N=c2\[nH]c(=O)n(C[C@H](C)C(=O)OC)c(=O)n2Cc2ccc(C)cc2)cc1Cl [Compound I-1016],7.77
15,CCn1c(=O)[nH]/c(=N\c2ccc(Oc3cccc(CC(=O)OC)c3)cc2)n(Cc2ccc(Cl)cc2)c1=O [Compound I-1889],7.64
16,COC(=O)[C@@H](C)Cn1c(=O)[nH]/c(=N\c2ccc(OC3CCCC3)cc2)n(Cc2ccc(C)cc2)c1=O [Compound I-1186],7.48
17,C[C@@H](C(=O)O)[C@H](C)n1c(=O)[nH]/c(=N\c2ccc3ncccc3c2)n(Cc2ccc(Cl)cc2)c1=O [Compound I-1834],6.49
18,CC1(C)OCC(Cn2c(=O)nc(Cc3cccc(C(F)(F)F)c3)n(Cc3ccc(Cl)cc3)c2=O)CO1 [Compound I-1642],6.26
19,COc1ccc2cc(/N=c3\[nH]c(=O)n([C@@H](C)[C@@H](C)C(=O)O)c(=O)n3Cc3ccc(Cl)cc3)ccc2c1 [Compound I-1773],7.54
20,Cc1oc2ccc(/N=c3\[nH]c(=O)n(C[C@H](C)C(=O)O)c(=O)n3Cc3ccc(Cl)cc3)cc2c1C [Compound I-1653],7.85
21,COC(=O)CCn1c(=O)[nH]/c(=N\C2CCC(C)CC2)n(Cc2ccc(C)cc2)c1=O (centres unmarked) [Compound I-1759],6.39
22,Cc1nc2ccc(/N=c3\[nH]c(=O)n(C[C@H]4COC(C)(C)O4)c(=O)n3Cc3ccc(Cl)cc3)cc2s1 [Compound I-1603],8.30
23,CCc1nc2ccc(/N=c3\[nH]c(=O)n(CCCC(N)=O)c(=O)n3Cc3ccc(Cl)cc3)cc2s1 [Compound I-1711],8.30
24,Cc1nc2ccc(/N=c3\[nH]c(=O)n(CC4(C)COC(C)(C)OC4)c(=O)n3Cc3ccc(Cl)cc3)cc2s1 [Compound I-1635],8.30
25,CCC[C@@H](C)Oc1ccc(/N=c2\[nH]c(=O)n(C[C@H](C)C(=O)O)c(=O)n2Cc2ccc(C)cc2)cc1 [Compound I-1061],6.76
26,COC(=O)Cn1c(=O)[nH]/c(=N\c2ccc(Oc3ccc(OC)nc3)cc2)n(Cc2ccc(Cl)cc2)c1=O [Compound I-1753],8.05

# Same assay, conditions: human P2X3 receptor, Test Example 1
row,Compound,pIC50
1,COC(=O)[C@@H](C)Cn1c(=O)[nH]/c(=N\c2cnc(OC3CCC3)c(C)c2)n(Cc2ccc(Cl)cc2)c1=O [Compound I-1479],7.70
2,CCc1cc2cc(/N=c3\[nH]c(=O)n(C[C@H](O)CO)c(=O)n3Cc3ccc(Cl)cc3)ccc2o1 [Compound I-2315],7.77
3,CCn1c(=O)[nH]/c(=N\c2ccc([S+]([O-])c3ccc(C(=O)O)cc3)cc2)n(Cc2ccc(Cl)cc2)c1=O (centres unmarked) [Compound I-2631],6.32
4,COC(=O)C[C@@H](C)n1c(=O)[nH]/c(=N\c2ccc(OC(C)C)c(Cl)c2)n(Cc2ccc(C)cc2)c1=O [Compound I-0875],7.85
5,CC(=O)N(C)CCCn1c(=O)[nH]/c(=N\c2ccc(OC(C)C)c(F)c2)n(Cc2ccc(Cl)cc2)c1=O [Compound I-2317],8.52
6,CCn1c(=O)[nH]/c(=N\c2ccc(Oc3ncccn3)cc2)n(Cc2ccc(Cl)cc2)c1=O [Compound I-2362],8.00
7,CCOC(=O)Cn1c(=O)[nH]/c(=N\c2ccc(Oc3ccon3)c(F)c2)n(Cc2ccc(Cl)cc2)c1=O [Compound I-2578],8.22
8,Cn1c(=O)[nH]/c(=N\c2ccc(Oc3cncc(C(N)=O)n3)cc2)n(Cc2ccc(Cl)cc2)c1=O [Compound I-2471],8.30
9,CCn1c(=O)[nH]/c(=N\c2ccc(Oc3ccnc(NC(=O)NC)c3)cc2)n(Cc2ccc(Cl)cc2)c1=O [Compound I-2425],8.70
10,CCn1c(=O)[nH]/c(=N\c2ccc(Oc3cc(C(=O)OC)sn3)cc2)n(Cc2ccc(Cl)cc2)c1=O [Compound I-2247],8.52
11,CCc1cc2cc(/N=c3\[nH]c(=O)n(CCCO)c(=O)n3Cc3ccc(Cl)cc3)ccc2o1 [Compound I-2336],8.00
12,CC(CO)(CO)Cn1c(=O)[nH]/c(=N\c2ccc(Oc3ccon3)cc2)n(Cc2ccc(F)cc2)c1=O [Compound I-2399],7.70
13,CCn1c(=O)[nH]/c(=N\c2ccc3nc(/C=N\OC)sc3c2)n(Cc2ccc(Cl)cc2)c1=O [Compound I-2338],6.59
14,CCn1c(=O)[nH]/c(=N\c2ccc(Oc3ccnc(C(=O)NC)c3)c(F)c2)n(Cc2ccc(Cl)cc2)c1=O [Compound I-2432],8.70
